Source: paper PMC12113347, “Compound 3d Attenuates Metabolic Dysfunction-Associated Steatohepatitis via Peroxisome Proliferator-Activated Receptor Pathway Activation and Inhibition of Inflammatory and Apoptotic Signaling” (Metabolites, 2025)

Tests used:
[1] = tested on: L02 cells; assay: FFA-induced lipid accumulation model in L02 cells (TG and ALT kits, Oil Red O); format: cell-based, human; conditions: 0.9 mM FFA
Protocol: Free fatty acids (FFAs, OA:PA = 2:1) were used to induce the lipid model in L02 cells (Guangzhou Huatuo Biological Technology Co., Ltd., Guangzhou, China). The L02 cells (1 × 10^5 cells/mL) were inoculated in 12-well plates. After 24 h, the cells were starved for 12 h and then treated with DMSO or FFAs for 24 h. Subsequently, the cells were exposed to fenofibric acid (100 μM) or 3d (10, 20, 40 μM) for another 24 h.
The cells were collected and lysed using cell lysis solution; the supernatants were subjected to triglycerides (TGs) and alanine aminotransferase (ALT) kit assays. Moreover, following the completion of the treatment, the cells were fixed with 4% paraformaldehyde and stained with an Oil Red O, with the objective of observing the morphology under an inverted microscope.

[2] = tested on: L02 cells; assay: Effect of 3d on L02 cell proliferation/survival (Figure 1C); format: cell-based, human; conditions: 3d alone
[3] = tested on: L02 cells; assay: Apoptosis test (Annexin V/PI, flow cytometry) in FFA-treated L02 cells; format: cell-based, human; conditions: after FFA treatment
Protocol: (§1) L02 cells were inoculated in 6-well plates at 1 × 10^5 cells/mL, and after completing the lipid-accumulating cell modeling treatment according to the method described in 2.1, the cells were collected and washed with 1× PBS buffer.
Apoptosis test: Binding Buffer was used to resuspend the modeling-treated cells, cells were stained with Annexin V/PI, and apoptosis was determined using flow cytometry.

[4] = tested on: L02 cells; assay: Mitochondrial membrane potential test (JC-1) in FFA-treated L02 cells; format: cell-based, human; conditions: FFA-induced depolarization; 3d 20 μM
Protocol: as §1
Mitochondrial membrane potential (MMP) test: After the cells were co-incubated with FFAs and drugs for 24 h, the remaining medium was discarded and the cells were washed with 1× PBS buffer before being treated with JC-1 probe dye. A laser confocal microscope was used to take photographs, which were quantitatively analyzed using ImageJ software (V. 1.52a, Wayne Rasband National Institutes of Health, Bethesda, MD, USA).

[5] = tested on: PPAR signaling pathway and p38 MAPK pathway proteins; assay: Proteomics and Western blotting of liver tissue of HFD mice (PPAR pathway, p38 MAPK and apoptosis proteins); format: in vivo
Protocol: Proteome sequencing of liver tissue samples was performed according to the specific requirements of the protocol by Beijing Qinglian Baiao Biotechnology Co., Ltd. (Beijing, China). Mouse fecal samples were collected and frozen in liquid nitrogen and stored at −80 °C.
(§2) Proteins were extracted using RIPA lysate and a BCA kit for protein concentration, separated by SDS-PAGE gel electrophoresis, and transferred to PVDF membranes. The membranes were sealed with 5% skimmed milk and incubated at 4 °C overnight with primary antibodies, followed by co-incubation with the corresponding secondary antibodies. The protein bands were imaged using an infrared laser imager and quantitatively analyzed by ImageJ software. The antibodies used for Western blot were Acox1 (Abcam, ab184032), Acaa1 (Abcam, ab154091), EHHADH (Abcam, ab123490), PPARγ (Abcam, ab272718), PPARα (Abcam, ab314112), PPARδ (Abcam, ab178866), P38 (Abcam, ab31828), p-P38 (Abcam, ab195049), Bcl-2 (Abcam, ab182858), Caspase8 (Abcam, ab25901), anti-rabbit IgG (CST, 7074 S), and α-tubulin (Abcam, ab7291).

[6] = tested on: PPAR-related proteins; assay: Western blotting of PPAR-related proteins in FFA-stimulated L02 cells; format: cell-based, human; conditions: Figure 6A
Protocol: as §2

[7] = In vitro stability in DMEM medium, simulated gastric fluid and simulated intestinal fluid (HPLC); format: in vitro ADME; conditions: 40 μM, 37 °C
Protocol: Elafibranor and 3d (40 μM) were dissolved in DMEM medium, as well as in simulated gastric fluid (SGF) and simulated intestinal fluid (SIF), respectively, at 37 °C. The concentration of the compounds was determined within 24 h by HPLC. The HPLC conditions comprised an ACQUITY UPLC BEH C18 column maintained at 40 °C with a mobile phase consisting of 20% ultrapure water and 80% acetonitrile, with a flow rate of 1 mL/min at 360 nm.

[8] = Pharmacokinetics of 3d in male SD rats, gavage; format: in vivo; conditions: for MRT last: read-out: MRT(0-t) (converted)
Protocol: (§3) The pharmacokinetics of 3d in vivo were evaluated using male SD rats. Following a 12 h fast, the rats were administered 3d (30 mg/kg) via gavage or tail vein injection, respectively, and blood samples were collected within 24 h for analysis of 3d blood concentration via HPLC. The PK parameters were calculated using the DAS 3.0, and oral bioavailability (F) was obtained by the following formula.F = AUCpo × Di.v/AUCi.v × Dpo × 100%(1)

[9] = Pharmacokinetics of 3d in male SD rats, tail vein injection; format: in vivo; conditions: 30 mg/kg; for half-life: SD, iv
Protocol: as §3

[10] = HFD mice liver, Western blot, Figure 7A
[11] = male, SD, rat, blood, po, 30 mg/kg, rats, administered orally
[12] = male, rat, blood, SD rats, intravenous

- concentration in culture medium (stability) ([7]; DMEM, within 24 h): remained relatively constant
- concentration in gastric fluid (stability) ([7]; SGF): decreased significantly after 60 min
- concentration in intestinal fluid (stability) ([7]; SIF, within 24 h): remained relatively constant
- AUC(0-t) ([8]; SD rats, gavage, 30 mg/kg): 30,236 ng/L*min
- AUC(0-∞) ([8]; SD rats, gavage, 30 mg/kg): 34,864 ng/L*min
- AUMC(0-t) ([8]; SD rats, gavage, 30 mg/kg): 7,351,242
- AUMC(0-∞) ([8]; SD rats, gavage, 30 mg/kg): 12,023,223
- Cmax ([8]; SD rats, gavage, 30 mg/kg): 0.113 ng/mL
- Cz ([8]; SD rats, gavage, 30 mg/kg): 15 ng/L
- Tmax ([8]; SD rats, gavage, 30 mg/kg): 2 h
- VRT(0-t) ([8]; SD rats, gavage, 30 mg/kg): 31,533 min^2
- VRT(0-∞) ([8]; SD rats, gavage, 30 mg/kg): 107,286 min^2
- Zeta ([8]; SD rats, gavage, 30 mg/kg): 0.003 min⁻¹
- Cmax ([8]; male, SD, rat, blood, po, 30 mg/kg, SD rats, gavage, 30 mg/kg, read-out: Cmax): 0.113 ng/mL
- MRT last ([8]; male, SD, rat, blood, po, 30 mg/kg, SD rats, gavage, 30 mg/kg): 4.05 h
- half-life [8, 11]: 3.4 h
- MRT last [8, 11]: 4 h
- Tmax ([8]; male, SD, rat, blood, po, 30 mg/kg, rats, administered orally, read-out: time of peak concentration): 2 h
- bioavailability ([8]; male, SD, rat, blood, po, rats, 30 mg/kg gavage vs tail vein injection, read-out: oral bioavailability (F)): 27.9%
- MRT inf ([8]; male, rat, blood, po, SD rats, gavage, 30 mg/kg, read-out: MRT(0-∞) (converted)): 5.73 h
- AUC(0-t) ([9]; SD rats, intravenous): 108,480 ng/L*min
- AUC(0-∞) ([9]; SD rats, intravenous): 136,923 ng/L*min
- AUMC(0-t) ([9]; SD rats, intravenous): 11,816,712
- AUMC(0-∞) ([9]; SD rats, intravenous): 29,781,860
- Cz ([9]; SD rats, intravenous): 107 ng/L
- VRT(0-t) ([9]; SD rats, intravenous): 10,194 min^2
- VRT(0-∞) ([9]; SD rats, intravenous): 66,630 min^2
- Zeta ([9]; SD rats, intravenous): 0.004 min⁻¹
- half-life ([9]; male, rat, blood, SD rats, intravenous, read-out: T1/2): 3.03 h
- half-life ([9]; male, rat, blood, rats, intravenous administration, read-out: half-life (converted)): 3 h
- Cmax [9, 12]: 1.09 ng/mL
- Tmax [9, 12]: 5 min
- MRT last ([9]; male, rat, blood, SD rats, intravenous, read-out: MRT(0-t) (converted)): 1.8 h
- MRT inf ([9]; male, rat, blood, SD rats, intravenous, read-out: MRT(0-∞) (converted)): 3.62 h
- AUC intravenous relative to oral administration ([9]; rats): four times greater
SMILES: CNc1ccc(C(=O)/C=C/c2cc(C)c(OC(C)(C)C(=O)OC(C)(C)C)c(C)c2)cc1 [3d]
- intracellular lipid accumulation (Oil Red O morphology) [1]: diminished intracellular lipid accumulation
- ALT activity ([1]; 3d 10, 20, 40 μM, 24 h): notable reduction
- intracellular TG levels ([1]; 3d 10, 20, 40 μM, 24 h): notable reduction
- cell survival of L02 cells [2]: significantly increased cell survival
- apoptosis [3]: decrease to near-normal levels
- mitochondrial membrane potential [4]: partially restored
- activation of caspase 8 [5, 10]: reversed the activation
- expression of the anti-apoptotic protein Bcl-2 [5, 10]: significantly up-regulated
- degree of P38 phosphorylation ([5]; HFD mice liver, Western blot, Figure 7B): significantly reduced
- upregulation of Acox1, EHHADH, Acaa1 ([5]; HFD mice liver, p < 0.001): 2.3–3.1 fold
- decrease in caspase-8 ([5]; HFD mice liver, p < 0.01): 61%
- increase in Bcl-2 ([5]; HFD mice liver, p < 0.01): 1.8 fold
- reduction in p-p38 ([5]; HFD mice liver, p < 0.01): 54%
- PPAR-related proteins (PPAR α, γ, δ, Acox1, EHHADH, Acaa1) in liver tissues ([5]; HFD mice, Western blot, Figure 6B): decreasing trend of PPAR-related proteins was significantly reversed
- PPAR-related proteins in L02 cells [6]: significantly increased
